Legend:
Plasma [1] = experiment: Cmax in healthy human plasma assessed as hydroxyitraconazole at 200 mg, po every 12 hrs for 5 days; format: ADME, organism-based; set-up: dose 200 mg, route oral; conditions: in vivo
[2] = AUC (0 to 24 hrs) in healthy human lung epithelial lining fluid assessed as hydroxyitraconazole at 200 mg, po every 12 hrs for 5 days; format: ADME, organism-based; set-up: dose 200 mg, time < 24 hr, route oral; conditions: in vivo
[3] = AUC (0 to 24 hrs) in healthy human alveolar cell assessed as hydroxyitraconazole at 200 mg, po every 12 hrs for 5 days; format: ADME, organism-based, Pneumocyte; set-up: time < 24 hr, dose 200 mg, route oral; conditions: in vivo
[4] = Cmax in healthy human alveolar cell assessed as hydroxyitraconazole at 200 mg, po every 12 hrs for 5 days; format: ADME, organism-based, Lung, Pneumocyte; set-up: dose 200 mg, route oral; conditions: in vivo
[5] = Cmax in healthy human lung epithelial lining fluid at 200 mg, po every 12 hrs for 5 days; format: ADME, organism-based; set-up: dose 200 mg, route oral
Plasma [6] = experiment: AUC (0 to 24 hrs) in healthy human plasma assessed as hydroxyitraconazole at 200 mg, po every 12 hrs for 5 days; format: ADME, organism-based; set-up: time < 24 hr, dose 200 mg, route oral; conditions: in vivo

- Cmax (Plasma [1]): 1 µg/mL
- AUC [2]: 18.9 µg·h/mL
- AUC [3]: 134 µg·h/mL
- Cmax [4]: 6.6 µg/mL
- Cmax [5]: 3300 ng/mL
- AUC (Plasma [6]): 60.2 µg·h/mL
SMILES: CC(O)C(C)n1ncn(-c2ccc(N3CCN(c4ccc(OCC5COC(Cn6cncn6)(c6ccc(Cl)cc6Cl)O5)cc4)CC3)cc2)c1=O (stereo unspecified) [HYDROXYITRACONAZOLE]
